Calls of active or inactive are those of the source. No cut-off for these calls is given here.
Legend:
Type in all cases: functional, cell-based
[1] = molecular target: T1, Lysophosphatidic acid receptor 3 (Homo sapiens) (UniProt Q9UBY5); experiment: Antagonist activity at human LPA3R expressed in Chem-1 cells assessed as inhibition of lysophosphatidic acid-induced calcium mobilization at 30 uM by FLIPR assay
T1 sequence (whole entry): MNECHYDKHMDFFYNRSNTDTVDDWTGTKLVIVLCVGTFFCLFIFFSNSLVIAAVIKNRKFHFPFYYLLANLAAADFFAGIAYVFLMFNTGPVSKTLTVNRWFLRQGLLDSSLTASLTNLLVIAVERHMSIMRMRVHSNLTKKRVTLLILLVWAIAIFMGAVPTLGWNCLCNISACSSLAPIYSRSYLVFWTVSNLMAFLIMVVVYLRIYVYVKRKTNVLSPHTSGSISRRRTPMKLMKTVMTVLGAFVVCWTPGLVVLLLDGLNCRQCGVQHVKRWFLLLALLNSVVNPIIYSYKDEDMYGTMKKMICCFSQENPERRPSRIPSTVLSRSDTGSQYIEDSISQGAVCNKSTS

[2] = molecular target: Lysophosphatidic acid receptor 1 (Homo sapiens) (UniProt Q92633); experiment: Antagonist activity at human LPA1R expressed in Chem-1 cells assessed as inhibition of lysophosphatidic acid-induced calcium mobilization at 30 uM by FLIPR assay
Lysophosphatidic acid receptor 1 (Homo sapiens), sequence (Q92633 whole entry): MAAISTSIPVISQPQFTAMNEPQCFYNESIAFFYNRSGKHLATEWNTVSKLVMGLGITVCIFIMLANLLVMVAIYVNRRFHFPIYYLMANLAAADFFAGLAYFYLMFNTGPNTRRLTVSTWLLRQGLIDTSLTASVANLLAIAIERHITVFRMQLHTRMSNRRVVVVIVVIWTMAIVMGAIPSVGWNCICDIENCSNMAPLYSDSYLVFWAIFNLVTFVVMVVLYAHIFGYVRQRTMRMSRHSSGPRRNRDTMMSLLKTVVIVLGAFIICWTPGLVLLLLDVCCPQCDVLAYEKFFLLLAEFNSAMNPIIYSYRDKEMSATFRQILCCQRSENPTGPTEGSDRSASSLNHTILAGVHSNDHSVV

[3] = Antiproliferative activity against human NHLF cells assessed as inhibition of lysophosphatidic acid-induced proliferation by BrdU incorporation assay
[4] = molecular target: T1, Lysophosphatidic acid receptor 3 (Homo sapiens); experiment: Antagonist activity at human LPA3R expressed in Chem-1 cells assessed as inhibition of lysophosphatidic acid-induced calcium mobilization by FLIPR assay

inhibition [1] | inhibition [2] | inhibition [4] | SMILES | IC50 [3]
19% | 78% |  | COc1cc2c(cc1C(=O)/C(=N\C1CCCC1)n1ncc(C#N)c1N)CCC2 | 
1% | 96% |  | N#Cc1cnn(/C(=N/C2CCCC2)C(=O)c2ccc(Br)cc2)c1N | 
2% | 78% |  | COc1cc2ccccc2cc1C(=O)/C(=N\C1CCCC1)n1ncc(C#N)c1N | 0.184 µM
25% | 88% |  | COc1ccc(C(=O)/C(=N\C(C)C)n2ncc(C#N)c2N)c(OC)c1 | 0.027 µM
23% | 48% |  | COc1cc(OCc2ccccc2)ccc1C(=O)/C(=N\C1CCCC1)n1ncc(C#N)c1N | 
23% | 98% |  | COc1ccc(C(=O)/C(=N\C2CCCC2)n2ncc(C#N)c2N)c(OC)c1 | 0.029 µM
4% | 100% |  | COc1ccc(C(=O)/C(=N\C2CCCC2)n2ncc(C#N)c2N)c(F)c1 | 0.104 µM
14% | 13% |  | COc1cc(C(=O)/C(=N\C2CCCC2)n2ncc(C#N)c2N)cc(OC)c1OC | 
3% | 49% |  | COc1cc(F)ccc1C(=O)/C(=N\C1CCCC1)n1ncc(C#N)c1N | 
30% | 85% |  | COc1ccc(C(=O)/C(=N\C2CCCCC2)n2ncc(C#N)c2N)c(OC)c1 | 3.87 µM
14% | 100% |  | CCc1ccc(C(=O)/C(=N\C2CCCC2)n2ncc(C#N)c2N)cc1 | 0.533 µM
 |  | inactive | COc1ccc(-c2[nH]c3c(C#N)cnn3c2NC2CCCC2)c(OC)c1 | 
8% | 79% |  | COc1cc(OC)c(C(=O)/C(=N\C2CCCC2)n2ncc(C#N)c2N)cc1OC | 

From ChEMBL document CHEMBL3351480, “Discovery of novel non-carboxylic acid 5-amino-4-cyanopyrazole derivatives as potent and highly selective LPA1R antagonists” (Bioorg Med Chem Lett, 2014)
